# The source made the active and inactive calls. The rule behind the calls is not given here.
# Key:
# [1] = system: Human immunodeficiency virus 1; assay: Antiviral activity against HIV1 3B infected in human CEM cells assessed as reduction in virus-induced cytopathicity after 4 to 5 days by microscopy based syncytium cell formation assay; type: functional, organism-based, CCRF-CEM; settings: Human immunodeficiency virus 1, 3B, CCRF-CEM; read-out: EC50
# [2] = system: Human immunodeficiency virus 2; assay: Antiviral activity against HIV2 ROD infected in human CEM cells assessed as reduction in virus-induced cytopathicity after 4 to 5 days by microscopy based syncytium cell formation assay; type: functional, organism-based, ISOLATE ROD, CCRF-CEM; settings: Human immunodeficiency virus 2, ISOLATE ROD, CCRF-CEM; read-out: EC50
# [3] = Cytotoxicity against human CEM cells assessed as inhibition of cell proliferation; type: cell-based; settings: CEM cells (CCRF-CEM)
# [4] = system: Hepatitis C virus; assay: Antiviral activity against HCV genotype 1b I389luc-ubi-neo/NS3-3'/5.1 replicons infected in human Huh5-2 HCV subgenomic replicon-containing cells assessed as reduction in virus replication after 3 days by luciferase reporter gene assay; type: functional, Hepacivirus hominis; settings: Hepatitis C virus, genotype 1b, Huh-5-2, 72 h
# [5] = Cytotoxicity against human Huh5-2 cells after 72 hrs by MTS assay; type: cell-based, Huh-5-2
# [6] = Selectivity index, ratio of CC50 for human Huh5-2 cells to EC50 for HCV genotype 1b; set-up: species or system Huh-5-2
# [7] = system: Hepatitis C virus; assay: Antiviral activity against HCV genotype 1b I389luc-ubi-neo/NS3-3'/5.1 replicons infected in human Huh-9-13 HCV subgenomic replicon-containing cells assessed as reduction in virus replication after 3 days by RT-qPCR method; type: functional, Hepacivirus hominis; settings: 72 h
# [8] = system: Hepatitis C virus; assay: Antiviral activity against HCV genotype 1b I389luc-ubi-neo/NS3-3'/5.1 replicons infected in human HuH6 HCV subgenomic replicon-containing cells assessed as reduction in virus replication after 3 days by RT-qPCR method; type: functional, Hepacivirus hominis; settings: HuH-6, 72 h
# [9] = Cytotoxicity against human Huh-9-13 cells after 72 hrs by MTS assay; type: cell-based
# [10] = Cytotoxicity against human HuH6 cells after 72 hrs by MTS assay; type: cell-based
# [11] = Cytotoxicity against human Huh-9-13 cells assessed as reduction in cell number at 33 uM to 100 uM after 3 days by nile red staining based confocal microscopy; settings: 72 h
# [12] = Cytotoxicity against human Huh-9-13 cells assessed as alteration in cell morphology at 33 uM to 100 uM after 3 days by nile red staining based confocal microscopy; settings: 72 h
# [13] = Induction of phospholipidosis in human Huh-9-13 cells assessed as increase in charged lipid content at 33 uM to 100 uM after 3 days by nile red staining based confocal microscopy; type: cell-based; settings: 72 h
# [14] = Cytotoxicity against human Huh-9-13 cells assessed as reduction in cell number at 1 uM to 11 uM after 3 days by nile red staining based confocal microscopy; settings: 72 h
# [15] = Cytotoxicity against human Huh-9-13 cells assessed as alteration in cell morphology at 1 uM to 11 uM after 3 days by nile red staining based confocal microscopy; settings: 72 h
# [16] = Induction of phospholipidosis in human Huh-9-13 cells assessed as increase in charged lipid content at 1 uM to 11 uM after 3 days by nile red staining based confocal microscopy; type: cell-based; settings: 72 h
# [17] = system: Vaccinia virus; assay: Antiviral activity against vaccinia virus; type: functional, organism-based; settings: Orthopoxvirus vaccinia
# [18] = system: Vesicular stomatitis virus; assay: Antiviral activity against vesicular stomatitis virus; type: functional, organism-based
# [19] = system: Coxsackievirus B4; assay: Antiviral activity against human coxsackievirus B4; type: functional, organism-based
# [20] = system: Respiratory syncytial virus; assay: Antiviral activity against RSV; type: functional, organism-based
# [21] = system: Human respirovirus 3; assay: Antiviral activity against human parainfluenza virus 3; type: functional, organism-based
# [22] = system: Reovirus sp.; assay: Antiviral activity against reovirus; type: functional, organism-based
# [23] = system: Sindbis virus; assay: Antiviral activity against sindbis virus; type: functional, organism-based
# [24] = system: Influenza A virus H3N2; assay: Antiviral activity against influenza A virus H3N2; type: functional, organism-based
# [25] = system: Influenza A virus; assay: Antiviral activity against influenza A virus (H1N1); type: functional, organism-based
# [26] = system: Punta Toro virus; assay: Antiviral activity against punta toro virus; type: functional, organism-based
# [27] = system: Feline coronavirus; assay: Antiviral activity against feline coronavirus; type: functional, organism-based
# [28] = system: Felid alphaherpesvirus 1; assay: Antiviral activity against feline herpesvirus; type: functional, organism-based
# [29] = system: Chikungunya virus; assay: Antiviral activity against chikungunya virus; type: functional
smiles,measurement,setting,value
O=C(NCCCCCCCCCCCCNC(=O)c1ccc(O)c(O)c1O)c1ccc(O)c(O)c1O,EC50,[1],> 10 µM
same,EC50,[2],> 10 µM
same,CC50,[3],55 µM
same,EC90,[4],6.1 µM
same,EC50,[4]; read-out: EC50,2.5 µM
same,CC50 at 72 h,[5],> 100 µM
same,Ratio CC50/EC50,[6],>40
same,EC50,[7],8.4 µM
same,EC50,[8],33 µM
same,CC50 at 72 h,[9],> 100 µM
same,CC50 at 72 h,[10],> 100 µM
same,Activity,[11],Toxic
same,Activity,[12],Toxic
same,Activity,[13],Toxic
same,Activity,[14],Non-toxic
same,Activity,[15],Non-toxic
same,Activity,[16],Non-toxic
same,Activity,[17],inactive
same,Activity,[18],inactive
same,Activity,[19],inactive
same,Activity,[20],inactive
same,Activity,[21],inactive
same,Activity,[22],inactive
same,Activity,[23],inactive
same,Activity,[24],inactive
same,Activity,[25],inactive
same,Activity,[26],inactive
same,Activity,[27],inactive
same,Activity,[28],inactive
same,Activity,[29],inactive
